Where only a bound is given, the exact number is not on record here.

The target in the assay is T1, recombinant human ALK enzyme (ALK WT) (Homo sapiens, UniProt Q9UM73).
T1 construct: purchased Carna Biosciences 08-518
In words: ALK WT cell free enzymatic assay (TR-FRET). It is filed as biochemical. As to conditions: 1 μM ATP; for IC50: 10 point dose response; for inhibition at 0.1 µM: compound at 100 nM; for inhibition at 0.1 µM / inhibition at 1 µM: 30 min pre-incubation; for inhibition at 1 µM: compound at 1 μM. In a few lines: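 Read-out is TR-FRET (665 nm/615 nm ratio) using an Eu-labeled anti-phosphotyrosine antibody. Compound is pre-incubated 30 min with recombinant human ALK, then reacted 30 min with 1 μM ATP and 40 nM Poly GT substrate. Values are percent inhibition at 100 nM and 1 μM, plus IC50 from 10-point variable-slope regression.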

T1 sequence (Q9UM73 1058-1620 limits assumed): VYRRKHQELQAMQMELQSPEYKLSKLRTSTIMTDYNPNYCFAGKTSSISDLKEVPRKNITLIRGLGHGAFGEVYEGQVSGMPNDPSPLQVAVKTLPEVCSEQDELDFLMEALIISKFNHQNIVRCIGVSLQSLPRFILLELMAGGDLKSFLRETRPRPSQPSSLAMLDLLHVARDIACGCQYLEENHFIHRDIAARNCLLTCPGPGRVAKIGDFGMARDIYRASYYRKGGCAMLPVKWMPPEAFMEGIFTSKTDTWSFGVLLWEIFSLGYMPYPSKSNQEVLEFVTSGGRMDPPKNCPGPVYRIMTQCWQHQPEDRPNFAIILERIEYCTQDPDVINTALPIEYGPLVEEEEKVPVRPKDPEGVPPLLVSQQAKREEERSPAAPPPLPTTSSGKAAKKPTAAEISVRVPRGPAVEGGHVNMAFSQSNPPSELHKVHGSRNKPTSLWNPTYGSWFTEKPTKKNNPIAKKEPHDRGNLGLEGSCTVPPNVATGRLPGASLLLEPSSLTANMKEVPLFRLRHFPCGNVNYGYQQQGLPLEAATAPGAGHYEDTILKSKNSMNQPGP

`c1cc(Cn2cc(-c3c[nH]c4ncc(-c5ccc(C6CCNCC6)cc5)cc34)cn2)ccn1` [Example 171, 5-(4-(piperidin-4-yl)phenyl)-3-(1-(pyridin-4-ylmethyl)-1H-pyrazol-4-yl)-1H-pyrrolo[2,3-b]pyridine]: the IC50 was 50 to 250 nM, the inhibition at 0.1 µM amounted to 41% and the inhibition at 1 µM came to 88%.
As to `Fc1cccc(Cn2cc(-c3c[nH]c4ncc(-c5ccc(N6CCNCC6)c(F)c5)cc34)cn2)c1` [Example 172, 5-(3-fluoro-4-(piperazin-1-yl)phenyl)-3-(1-(3-fluorobenzyl)-1H-pyrazol-4-yl)-1H-pyrrolo[2,3-b]pyridine], the IC50 was less than 50 nM, the inhibition at 0.1 µM came out at 99% and the inhibition at 1 µM was found to be 100%.
For the compound `Fc1cccc(Cn2cc(-c3c[nH]c4ncc(-c5cnc(N6CCNCC6)c(F)c5)cc34)cn2)c1` [Example 173, 5-(5-fluoro-6-(piperazin-1-yl)pyridin-3-yl)-3-(1-(3-fluorobenzyl)-1H-pyrazol-4-yl)-1H-pyrrolo[2,3-b]pyridine], the IC50 is less than 50 nM, the inhibition at 0.1 µM worked out at 92% and the inhibition at 1 µM amounted to 98%.
On to `COc1cc(-c2cnc3[nH]cc(-c4cnn(Cc5cccc(F)c5)c4)c3c2)cnc1N1CCNCC1` [Example 174, 3-(1-(3-fluorobenzyl)-1H-pyrazol-4-yl)-5-(5-methoxy-6-(piperazin-1-yl)pyridin-3-yl)-1H-pyrrolo[2,3-b]pyridine], for which the IC50 is less than 50 nM, the inhibition at 0.1 µM was found to be 96% and the inhibition at 1 µM is 100%.
As to `Cc1nn(Cc2cccc(F)c2)c(C)c1-c1c[nH]c2ncc(-c3ccc(C4CCNCC4)c(F)c3)cc12` [Example 175, 5-(3-fluoro-4-(piperidin-4-yl)phenyl)-3-(1-(3-fluorobenzyl)-3,5-dimethyl-1H-pyrazol-4-yl)-1H-pyrrolo[2,3-b]pyridine], the IC50 was less than 50 nM, the inhibition at 0.1 µM came to 96% and the inhibition at 1 µM came to 100%.
For `CS(=O)(=O)Nc1cc(-c2cnc3[nH]cc(-c4ccn(Cc5cc(F)cc(F)c5)n4)c3c2)ccc1C1CCNCC1` [Example 176, N-(5-(3-(1-(3,5-difluorobenzyl)-1H-pyrazol-3-yl)-1H-pyrrolo[2,3-b]pyridin-5-yl)-2-(piperidin-4-yl)phenyl)methanesulfonamide], the IC50 is less than 50 nM, the inhibition at 0.1 µM was found to be 86% and the inhibition at 1 µM is 99%.
For the compound `COc1cc(-c2cnc3[nH]cc(-c4c(C)nn(Cc5cc(F)cc(F)c5)c4C)c3c2)cnc1N` [Example 177, 5-(3-(1-(3,5-difluorobenzyl)-3,5-dimethyl-1H-pyrazol-4-yl)-1H-pyrrolo[2,3-b]pyridin-5-yl)-3-methoxypyridin-2-amine], the IC50 was less than 50 nM, the inhibition at 0.1 µM worked out at 96% and the inhibition at 1 µM amounted to 100%.
For the compound `COc1cc(-c2cnc3[nH]cc(-c4c(C)nn(Cc5cccc(F)c5)c4C)c3c2)cnc1N` [Example 178, 5-(3-(1-(3-fluorobenzyl)-3,5-dimethyl-1H-pyrazol-4-yl)-1H-pyrrolo[2,3-b]pyridin-5-yl)-3-methoxypyridin-2-amine], the IC50 is less than 50 nM, the inhibition at 0.1 µM stood at 94% and the inhibition at 1 µM came to 100%.
Consider `CN1CCN(c2ncc(-c3cnc4[nH]cc(-c5cnn(Cc6cccc(F)c6)c5)c4c3)cc2F)CC1` [Example 179, 5-(5-fluoro-6-(4-methylpiperazin-1-yl)pyridin-3-yl)-3-(1-(3-fluorobenzyl)-1H-pyrazol-4-yl)-1H-pyrrolo[2,3-b]pyridine], for which the IC50 is less than 50 nM, the inhibition at 0.1 µM turned out to be 92% and the inhibition at 1 µM came out at 99%.
Regarding `C[C@@H](O)CN1CCN(c2ncc(-c3cnc4[nH]cc(-c5cnn(Cc6cccc(F)c6)c5)c4c3)cc2F)CC1` [Example 180, (R)-1-(4-(3-fluoro-5-(3-(1-(3-fluorobenzyl)-1H-pyrazol-4-yl)-1H-pyrrolo[2,3-b]pyridin-5-yl)pyridin-2-yl)piperazin-1-yl)propan-2-ol], the IC50 was less than 50 nM, the inhibition at 0.1 µM turned out to be 93% and the inhibition at 1 µM came to 100%.
With `NC(=O)CN1CCC(Cc2cccc(-c3cnc4[nH]cc(-c5cnn(Cc6cccc(F)c6)c5)c4c3)c2)CC1` [Example 184, 2-(4-(3-(3-(1-(3-fluorobenzyl)-1H-pyrazol-4-yl)-1H-pyrrolo[2,3-b]pyridin-5-yl)benzyl)piperidin-1-yl)acetamide], the IC50 was less than 50 nM, the inhibition at 0.1 µM came out at 92% and the inhibition at 1 µM turned out to be 100%.
As to `c1ccc(CCn2cc(-c3c[nH]c4ncc(-c5ccc(N6CCNCC6)cc5)cc34)cn2)cc1` [Example 185, 3-(1-phenethyl-1H-pyrazol-4-yl)-5-(4-(piperazin-1-yl)phenyl)-1H-pyrrolo[2,3-b]pyridine], the inhibition at 0.1 µM is 80% and the inhibition at 1 µM turned out to be 86%.
As for `Cc1nn(Cc2cccc(F)c2)c(C)c1-c1c[nH]c2ncc(-c3cccc(N4CCN(CCO)CC4)c3)cc12` [Example 186, 2-(4-(3-(3-(1-(3-fluorobenzyl)-3,5-dimethyl-1H-pyrazol-4-yl)-1H-pyrrolo[2,3-b]pyridin-5-yl)phenyl)piperazin-1-yl)ethanol], the IC50 is less than 50 nM, the inhibition at 0.1 µM was 83% and the inhibition at 1 µM turned out to be 96%.

Values taken from patent US9353107B2 (Aurigene Discovery Technologies Limited, priority 2012, dated 2016).
